Structures can show the parent of a compound that is named as a salt. Where two headings read alike, the source gives them in different places.
Columns and labels:
PPARGC1B [1] = test: qPCR of PPARGC1B mRNA expression in a-MSH-treated B16F10 cells; format: cell-based, mouse; settings: B16F10, 10 nM a-MSH plus substance, one day, appropriate concentration; FIG. 3
Procedure: (§1) Screening was performed for substances that influence the expression of genes associated with spot pigmentation among various substances having the skin-improving efficacy. Changes in the expression of genes associated with spot pigmentation were examined in cells where melanin synthesis was increased by a-MSH, and substances that restored the expression to the level before a-MSH treatment were selected.
(§2) Mouse melanoma cells (B16F10; CRL-6475) were purchased from ATCC for use. The purchased cells were cultured in a 37 °C/5% CO2 incubator using a medium prepared by supplementing Dulbecco's Modified Eagle Medium (DMEM-GIBCO) with 10% fetal bovine serum (FBS) and 1% penicillin/streptomycin.
(§3) To analyze the efficacy on changes in the mRNA expression of genes associated with skin spot pigmentation, mouse melanoma cells were seeded at […] cells/well in 6-well plates and cultured in a 37 °C/5% CO2 incubator for one day. After replacing the medium with a fresh medium, 10 nM α-MSH was treated, and substances were added to the medium at appropriate concentrations and cultured for one day under the same conditions. Thereafter, total RNA was obtained using AccuPrep Universal RNA Extraction Kit (Bioneer, K-3140), and cDNA was synthesized using AccuPower® RocketScript™ Cycle (Bioneer, K-2202). The expression level of each gene was analyzed by performing qPCR using synthesized cDNA and taqman probe (assay ID: ASCL2-Mm01268891_m1, PPARGC1B-Mm00504730_m1, TP63-Hs00978349_m1).

TP63 = test: qPCR of TP63 mRNA expression in UVB-irradiated HaCaT cells; format: cell-based, human; settings: UVB 10 mJ/cm^2, appropriate concentration, FIG. 3, UVB alone increased
Procedure: as §1, §3
TP63 expression was increased by 10 mJ/cm^2 of UVB in human keratinocytes, HaCaT. […]

[2] = test system: mouse melanoma cells and human keratinocytes; test: Inhibition of melanin production increased by a-MSH (dark skin tone); format: cell-based; settings: Keratinocyte, 48 h, a-MSH 10 nM, two days
Procedure: In detail, mouse melanoma cells and human keratinocytes were seeded at […] cells/well in 6-well plates and cultured in a 37 °C/5% CO2 incubator for one day, followed by treatment with 10 nM of a-MSH. Each of media comprising appropriate concentrations and combinations of substances was added and cultured again in a 37 °C/5% CO2 incubator for two days to determine whether the substances inhibited the melanin production increased by a-MSH. Cells attached to the plates were collected in PBS and centrifuged to obtain cell pellets. The cell pellets were visually inspected and photographed. The cell pellets were dissolved in a 1 N NaOH (sodium hydroxide) solution comprising 10% dimethyl sulfoxide (DMSO) at 80 °C for 10 minutes, and placed in a 96-well plate, and absorbance at 405 nm was measured using an Epoch (Biotek) instrument. Melanin was quantified using the measured absorbance and normalized to the sample protein concentration to determine melanin concentration. The inhibition rate of melanin production of the sample was calculated as a ratio of the melanin concentration of the sample treatment group with respect to the melanin concentration increased by a-MSH treatment.
E1=(X+Y)−(XY+XZ+YZ/100)+XYZ/10000 Colby equation
E2=X+Y−(XY/100) Colby equation

BNC2 = test: qPCR of BNC2 mRNA expression in a-MSH-treated melanocytes (B16F10); format: cell-based, mouse; settings: a-MSH 10 nM plus substance, 1 day, appropriate concentration; FIG. 2
Procedure: as §1, with “dark skin tone” for “spot pigmentation”, “having” for “having the”
as §2
(§4) To analyze the efficacy on changes in the mRNA expression of genes associated with dark skin tone, RT-qPCR experiment was conducted. Cells were cultured in a 37 °C/5% CO2 incubator for one day. To assess the change of KITLG expression by UVB, the medium of human keratinocytes (HaCaT) was replaced with PBS, and 30 mJ/cm^2 of UVB (312 nm) was irradiated using an RMX 3W (Vilber Lourmat) instrument. The medium was replaced with a fresh medium and cultured for one day. To assess the change in KITLG expression by treatment with substances, the cells were treated with appropriate concentrations of substances along with a fresh medium and cultured for one day. In addition, to assess the OCA2, BNC2, and RAB32 expression, melanocytes were treated with a-MSH (10 nM) and appropriate concentrations of substances in a fresh medium and cultured for 1 day. Thereafter, total RNA was obtained using AccuPrep Universal RNA Extraction Kit (Bioneer, K-3140), and cDNA was synthesized using AccuPower® RocketScript™ Cycle (Bioneer, K-2202). The expression level of each gene was analyzed by performing qPCR using synthesized cDNA and taqman probe (assay ID: OCA2-Mm00498969_m1, BNC2-Mm00556284_m1, RAB32-Mm00458960_m1, KITLG-Hs00241497_m1).

RAB11FIP2 = test: qPCR of RAB11FIP2 mRNA expression in UVB-irradiated mouse melanoma cells; format: cell-based; settings: B16F10, UVB 30 mJ/cm^2 (312 nm), substance one day, appropriate concentration; FIG. 1; UVB alone decreased
Procedure: as §1, with “scattered dark spots on skin” for “spot pigmentation”, “having” for “having the”, “UVB exposure,” for “a-MSH,”, “UVB exposure” for “a-MSH treatment”
as §2
(§5) To analyze the efficacy on changes in the mRNA expression of genes associated with scattered dark spots on skin, mouse melanoma cells were seeded at 2*10^5 cells/well in 6-well plates and cultured in a 37 °C/5% CO2 incubator for one day. After replacing the medium with PBS, 30 mJ/cm^2 of UVB (312 nm) was irradiated using an RMX 3W (Vilber Lourmat) instrument. Substances were added to the medium at appropriate concentrations and cultured for one day under the same conditions. […] The expression level of each gene was analyzed by performing qPCR using synthesized cDNA and taqman probe (assay ID: AKAP1-Mm00501539_m1, RAB11FIP2-Mm01261268_m1, PPARGC1B-Mm00504730_m1).

AKAP1 = test: qPCR of AKAP1 mRNA expression in UVB-irradiated mouse melanoma cells; format: cell-based; settings: B16F10, UVB 30 mJ/cm^2 (312 nm), substance one day, appropriate concentration; FIG. 1; UVB alone increased
Procedure: as §1, with “scattered dark spots on skin” for “spot pigmentation”, “having” for “having the”, “UVB exposure,” for “a-MSH,”, “UVB exposure” for “a-MSH treatment”
as §2, §5

OCA2 = test: qPCR of OCA2 mRNA expression in a-MSH-treated melanocytes (B16F10); format: cell-based, mouse; settings: a-MSH 10 nM plus substance, 1 day, appropriate concentration; FIG. 2
Procedure: as §1, with “dark skin tone” for “spot pigmentation”, “having” for “having the”
as §2, §4

RAB32 = test: qPCR of RAB32 mRNA expression in a-MSH-treated melanocytes (B16F10); format: cell-based, mouse; settings: a-MSH 10 nM plus substance, 1 day, appropriate concentration; FIG. 2
Procedure: as §1, with “dark skin tone” for “spot pigmentation”, “having” for “having the”
as §2, §4

PPARGC1B [3] = test: qPCR of PPARGC1B mRNA expression in UVB-irradiated mouse melanoma cells; format: cell-based; settings: B16F10, UVB 30 mJ/cm^2 (312 nm), substance one day, appropriate concentration; FIG. 1; UVB alone decreased
Procedure: as §1, with “scattered dark spots on skin” for “spot pigmentation”, “having” for “having the”, “UVB exposure,” for “a-MSH,”, “UVB exposure” for “a-MSH treatment”
as §2
To analyze the efficacy on changes in the mRNA expression of genes associated with scattered dark spots on skin, mouse melanoma cells were seeded at 2*10^5 cells/well in 6-well plates and cultured in a 37 °C/5% CO2 incubator for one day. After replacing the medium with PBS, 30 mJ/cm^2 of UVB (312 nm) was irradiated using an RMX 3W (Vilber Lourmat) instrument. Substances were added to the medium at appropriate concentrations and cultured for one day under the same conditions. Thereafter, total RNA was obtained using AccuPrep Universal RNA Extraction Kit (Bioneer, K-3140), and cDNA was synthesized using AccuPower® RocketScript Cycle (Bioneer, K-2202). The expression level of each gene was analyzed by performing qPCR using synthesized cDNA and taqman probe (assay ID: AKAP1-Mm00501539_m1, RAB11FIP2-Mm01261268_m1, PPARGC1B-Mm00504730_m1).

[4] = test system: protein carbonylation of keratinocytes; test: Protein carbonylation inhibition in UVA-irradiated human keratinocytes (HaCaT); format: cell-based; settings: relative to UVA-only group, significant
Procedure: Previous studies have shown that skin dullness and yellowness are promoted by protein carbonylation of keratinocytes. Therefore, through a protein carbonylation assay, it was examined whether or not customized substances for dark skin tone may also improve skin dullness and yellowness.
Human keratinocytes (HaCaT) were seeded at 1×10^4 in black clear-bottom 96-well plates, and after 24 hours, treated with customized substances at appropriate concentrations. After another 24 hours, cells were irradiated with […] of UVA, washed with PBS, and then incubated with fluolescein-5-thiosemicabarzide in MES buffer for 1 hour at room temperature. After another washing with PBS, fluorescence was measured using a plate reader at an excitation of 492 nm and an emission of 562 nm. Furthermore, based on the UVA-only treatment group, the reduction in protein carbonylation by other effective substances was measured.

CCOC1=C(O)C(=O)O[C@@H]1[C@@H](O)CO [3-O-ethyl ascorbic acid]
change of PPARGC1B expression (PPARGC1B [1]): increased

O=C1O[C@H]([C@@H](O)CO)C(O)=C1O[C@H]1O[C@H](CO)[C@@H](O)[C@H](O)[C@H]1O [ascorbyl glucoside]
change of PPARGC1B expression (PPARGC1B [1]): increased

C[C@H]1[C@H](C)CC[C@]2(C(=O)O[C@@H]3O[C@H](CO[C@@H]4O[C@H](CO)[C@@H](O[C@@H]5O[C@@H](C)[C@H](O)[C@@H](O)[C@H]5O)[C@H](O)[C@H]4O)[C@@H](O)[C@H](O)[C@H]3O)CC[C@]3(C)C(=CC[C@@H]4[C@@]5(C)C[C@@H](O)[C@H](O)[C@@](C)(CO)[C@@H]5CC[C@]43C)[C@H]12 [asiaticoside]
change of TP63 expression (TP63): decreased

C=C[C@@](C)(/C=C/c1ccc(O)cc1)CCC=C(C)C [bakuchiol]
inhibition at 5 ppm ([2]; 5 ppm, FIG. 5, read-out: reduction of melanin production (Y, Z)): ~2.07%
change of BNC2 expression (BNC2): decreasing

CC(C)=CCC[C@](C)(O)[C@@H]1CC=C(C)CC1 [bisabolol, 6-methyl-2-(4-methylcyclohex-3-en-1-yl)hept-5-en-2-ol]
change of RAB11FIP2 expression (RAB11FIP2): increasing

NCCS [cysteamine HCl]
change of AKAP1 expression (AKAP1): decreasing

N[C@@H](CS)C(=O)O [cysteine]
change of AKAP1 expression (AKAP1): decreasing

COc1cc(/C=C/C(=O)O)ccc1O [ferulic acid, 4-hydroxy-3-methoxycinnamic acid]
inhibition at 10 ppm ([2]; 10 ppm, FIG. 5, read-out: reduction of melanin production (X)): ~5.04%
change of OCA2 expression (OCA2): decreasing
change of BNC2 expression (BNC2): decreasing
change of RAB32 expression (RAB32): decreasing

O=c1c(-c2ccc(O)cc2)coc2cc(O)cc(O)c12 [genistein]
change of OCA2 expression (OCA2): decreasing
change of BNC2 expression (BNC2): decreasing
change of RAB32 expression (RAB32): decreasing

O=C1O[C@H](CO)[C@@H](O)[C@H](O)[C@H]1O [gluconolactone, glucono-delta-lactone]
change of PPARGC1B expression (PPARGC1B [3]): increased

O=C(O)CO [glycolic acid]
change of PPARGC1B expression (PPARGC1B [3]): increased

CC(C)CCCCCCCCCCCCCCC(=O)O [isostearic acid]
change of OCA2 expression (OCA2): decreasing
inhibition at 50 ppm ([4]; Homo sapiens, light or radiation study, 50 ppm, FIG. 9, read-out: reduction in protein carbonylation): 31%

OC[C@H]1O[C@@H](Oc2cc(O)cc(/C=C/c3ccc(O)cc3)c2)[C@H](O)[C@@H](O)[C@@H]1O [polydatin, 3,4′,5-trihydroxystilbene-3-mono-D glucoside]
inhibition at 10 ppm ([2]; 10 ppm polydatin, FIG. 6, read-out: reduction of melanin production): ~23.8%
change of OCA2 expression (OCA2): decreasing
change of BNC2 expression (BNC2): decreasing
change of RAB32 expression (RAB32): decreasing

O=c1c(O)c(-c2ccc(O)c(O)c2)oc2cc(O)cc(O)c12 [quercetin]
inhibition at 20 ppm ([2]; 20 ppm quercetin, FIG. 6, read-out: reduction of melanin production): ~33.9%
change of OCA2 expression (OCA2): decreasing
change of RAB32 expression (RAB32): decreasing

CC(=O)C(=O)[O-].[Na+] [sodium pyruvate]
change of TP63 expression (TP63): decreased

NC[C@H]1CC[C@H](C(=O)O)CC1 [tranexamic acid, trans-4-(aminomethyl)cyclohexanecarboxylic acid, reference compound]
change of OCA2 expression (OCA2): decreasing

gamma oryzanol
change of OCA2 expression (OCA2): decreasing
reduction in protein carbonylation ([4]; 2.5 ppm, FIG. 9): 39%
change of RAB32 expression (RAB32): decreasing

— US20260375265A1, “COMPOSITION FOR ALLEVIATING SKIN PIGMENTATION” (LG H & H CO., LTD., priority 2023, published 2026)
